Data published in the OPERA property sets (Mansouri et al. 2018).

Row | SMILES | melting point [°C] | boiling point [°C] | log10 Koa | log10 vapour pressure (mmHg) | log10 biodegradation half-life (days) | ready biodegradability | log10 Koc (L/kg) | log10 Henry constant (atm·m³/mol)
1 | C[C@]12C=CC(=O)C=C1CC[C@@H]1[C@@H]2[C@@H](O)C[C@@]2(C)[C@H]1CC[C@]2(O)C(=O)COC(=O)CCCc1ccc(N(CCCl)CCCl)cc1 | 164 | – | – | – | – | – | – | –
2 | COC(=O)C(=O)Cl | – | 119 | – | – | – | – | – | –
3 | CCCCCCCCCCCCCCCCCCCCCC(=O)OCC | 50 | – | – | – | – | – | – | –
4 | COc1ccc2c(c1)CC[C@@H]1[C@@H]2CC[C@]2(C)[C@@H](O)[C@H](O)C[C@@H]12 | 159 | – | – | – | – | – | – | –
5 | O=C(O)Cc1cccc(F)c1 | 43 | – | – | – | – | – | – | –
6 | COc1ccc(C)c(N)c1 | 47 | 253 | – | – | – | – | – | –
7 | C=CCCC(=C)C | -129 | 88.1 | – | – | – | – | – | –
8 | Clc1ccc(-c2c(Cl)c(Cl)c(Cl)c(Cl)c2Cl)c(Cl)c1 | – | – | 10.5 | – | – | – | – | –
9 | OC[C@H]1O[C@H](O[C@H]2O[C@H](CO)[C@@H](O)[C@H](O)[C@H]2O)[C@H](O)[C@@H](O)[C@@H]1O | 203 | – | – | – | – | – | – | –
10 | Clc1cc2oc3c(Cl)c(Cl)ccc3c2c(Cl)c1Cl | 206 | – | – | -8.65 | – | – | – | –
11 | CC(C)COC(=O)CC(C)C | – | 168 | – | 0.266 | – | – | – | –
12 | CCC(C)c1cc([N+](=O)[O-])cc([N+](=O)[O-])c1OC(C)=O (stereo unspecified) | 26 | – | – | -3.22 | – | – | – | –
13 | CCc1cc(C)cc(C)c1 | -84.3 | 184 | – | 0.0133 | 0.301 | – | – | –
14 | Cn1cccn1 | – | 127 | – | – | – | – | – | –
15 | C#CCl | -126 | -30 | – | – | – | – | – | –
16 | O=c1[nH]c2ccccc2n1C1CCN(CCCC(c2ccc(F)cc2)c2ccc(F)cc2)CC1 | 216 | – | – | – | – | – | – | –
17 | C[C@@H](CN1CC(=O)NC(=O)C1)N1CC(=O)NC(=O)C1 | 238 | – | – | – | – | – | – | –
18 | COc1cccc(C(C)=O)c1 | – | 240 | – | – | – | – | – | –
19 | CCCCOC(=O)CCC(=O)OCCCC | -29.2 | 274 | – | – | – | – | – | –
20 | CC(C)(C)c1cc(N=Nc2ccccc2[N+](=O)[O-])c(O)c(C(C)(C)C)c1 | – | – | – | – | – | not readily biodegradable | – | –

Row | SMILES | melting point [°C] | boiling point [°C] | log10 Koa | log10 vapour pressure (mmHg) | log10 biodegradation half-life (days) | ready biodegradability | log10 Koc (L/kg) | log10 Henry constant (atm·m³/mol)
21 | Nc1ccc(N=O)cc1 | 174 | – | – | – | – | – | – | –
22 | FCCCCCCl | – | 143 | – | – | – | – | – | –
23 | CC(C)(C)OC(C)(C)C | – | 107 | – | 1.51 | – | – | – | –
24 | C=C(C)[C@@H]1CC=C(C)C(=O)C1 | – | – | – | -0.988 | – | – | – | –
25 | CCSC(=O)SCC | – | 197 | – | – | – | – | – | –
26 | CC(N)=O | 81 | 222 | – | -1.4 | – | readily biodegradable | 0.7 | –
27 | CC(C)c1ccc(CO)cc1 | 28 | 249 | – | – | – | readily biodegradable | – | –
28 | Clc1c(Cl)c(Cl)c(-c2c(Cl)c(Cl)c(Cl)c(Cl)c2Cl)c(Cl)c1Cl | – | – | – | – | – | not readily biodegradable | – | –
29 | c1cnc(N2CCN(Cc3ccc4c(c3)OCO4)CC2)nc1 | 98 | – | – | – | – | – | – | –
30 | CC(C)CC(N)=O | 137 | 226 | – | – | – | – | – | –
31 | C=C(C)[C@H]1CCC(C)=C[C@@H]1c1c(O)cc(CCCCC)cc1O | 67 | – | – | – | – | – | – | –
32 | CC#Cc1cc(C)nc(Nc2ccccc2)n1 | 133 | – | – | -6.76 | – | – | – | –
33 | CC[C@H](c1ccc(O)cc1)[C@@H](CC)c1ccc(O)cc1 | 186 | – | – | – | – | – | – | –
34 | CC(=O)N1CCC(=O)CC1 | – | 218 | – | – | – | – | – | –
35 | O=[N+]([O-])c1ccc2c(c1)CCN2 | 93 | – | – | – | – | – | – | –
36 | CN1CCc2cc3c(cc2[C@H]1[C@@H]1OC(=O)c2c1ccc1c2OCO1)OCO3 | 194 | – | – | – | – | – | – | –
37 | c1ccc(NC2CCCCC2)cc1 | 16 | 279 | – | – | – | – | – | –
38 | C[C@]12CC[C@H](O)C[C@H]1CC[C@@H]1[C@@H]2CC[C@]2(C)[C@@H](C3=CC(=O)OC3)[C@@H](O)C[C@]12O | 234 | – | – | – | – | – | – | –
39 | FC(F)=C(F)Br | – | -1 | – | 3.29 | – | – | – | –
40 | FC(F)C(F)(F)OCC(Cn1cncn1)c1ccc(Cl)cc1Cl (stereo unspecified) | 6 | – | – | -5.87 | – | – | – | –

Row | SMILES | melting point [°C] | boiling point [°C] | log10 Koa | log10 vapour pressure (mmHg) | log10 biodegradation half-life (days) | ready biodegradability | log10 Koc (L/kg) | log10 Henry constant (atm·m³/mol)
41 | FC(F)(F)C(F)(F)C(F)(F)C(F)(F)C(F)(F)C(F)(F)C(F)(F)Br | – | 118 | – | – | – | – | – | –
42 | O=C(C(=O)c1ccccc1)c1ccccc1 | 94.8 | 347 | – | -3.68 | – | – | – | –
43 | CCCCCCCCl | -69.5 | 159 | – | 0.451 | – | – | – | –
44 | O=C(OCCOC(=O)C(Cl)(Cl)Cl)C(Cl)(Cl)Cl | 40 | – | – | – | – | – | – | –
45 | c1ccc2c(c1)CCc1ccccc1-2 | 34.5 | – | – | -3.22 | – | – | – | –
46 | C=CCCCCCCCCC(=O)O | 24.5 | 275 | – | -3.03 | – | – | – | –
47 | C=C(C)CC(C)=O | -72.6 | 124 | – | 1.18 | – | – | – | –
48 | CC(=O)/C(C)=N/O | 76.8 | 186 | – | – | – | – | – | –
49 | Clc1ccc(C(c2ccc(Cl)cc2)C(Cl)Cl)cc1 | 110 | 350 | 10.1 | -5.87 | – | – | 4.21 | -5.18
50 | COCCCN | – | 118 | – | – | – | not readily biodegradable | – | –
51 | Cc1cc(C)c(C)c(C)c1C | 54.5 | 232 | – | -1.46 | – | – | – | –
52 | FCOC(C(F)(F)F)C(F)(F)F | – | 58.5 | – | 2.29 | – | – | – | –
53 | CCCCCCCCCCCC[N+](C)(C)CCOc1ccccc1.[Br-] | 112 | – | – | – | – | – | – | –
54 | Cc1ccc(S)cc1 | 43 | 195 | – | -0.191 | – | – | – | –
55 | Cc1c(N=C=O)cccc1N=C=O | 18.3 | – | – | -1.68 | – | – | – | –
56 | CCCCCCc1ccc(N)cc1 | – | 282 | – | – | – | – | – | –
57 | CCCCCCCCCCS | -26 | 241 | – | -1.44 | – | – | – | –
58 | FC(F)(F)c1ccc(C(F)(F)F)cc1 | – | 116 | – | – | – | – | – | –
59 | CC(C)Oc1ccccc1 | -33 | 177 | – | – | – | – | – | –
